Experimental data from US20200129525A1, “Method to improve quality of life in non-primate animals by administration of Dehydroepiandrosterone Sulfate (DHEAS) sufficient to achieve primate-specific levels of circulating DHEAS that are not natural to the target species” (priority 2018, published 2020).
Several values for one entry are separate records, joined by “and”; a condition that tells them apart may be missing. Equal values may be shown once.

Tested on: dogs
Test: Study on 60 dogs: owner estimation of playfulness and sociability before and after DHEAS treatment
Type: in vivo, dog
Conditions: for playfulness and sociability: dogs
Experimental: Table 1. […] Playfulness was defined as a dog initiating solitary play. Sociability was defined as a dog initiating play with another pet or with its owner. […] Of twenty-six dogs treated the highest doses (25 or 50 mg/kg) eighteen owners reported the changes in their dogs to be dramatic.
Physiological levels of circulating DHEAS in canines are 10 ng/ml (±2 ng/ml) (Frank et al, 2003; Odell & Parker, 1985; Tremblay & Belanger, 1985; Mialot et al, 1988; Mongillo et al, 2014; Rondelli et al, 2015). Our invention employs doses of DHEAS that produce supra-physiologic concentrations of circulating DHEAS at least nine times higher than this, i.e., at least 90 ng/ml, i.e. equivalent to the lower range of primate-specific high levels of circulating DHEAS (FIG. 1). This equates to a minimum treatment dose of 0.009 mg/kg. Our studies reported here were performed with DHEAS administered at ranges from 0.5-50 mg/kg. For all non-primate animals, this invention employs supra-physiologic doses of DHEAS that produce concentrations of circulating DHEAS that are at least ten-fold higher than those found naturally
Thus, in 56 of 60 treated dogs, owners reported observing a very clear improvement in their dog's playfulness and sociability, an observation that in most cases was also remarked upon by visitors to the owner's home. The uniformity of this finding is surprising, because the natural levels of canine DHEAS are quite low, and so this species has never been exposed to such high levels as we report here. Clearly, dogs experience an unmistakable positive response to exogenous DHEAS.
We administered our DHEAS orally, as a liquid, or in capsules. A preferred embodiment of this invention are dosage formulations that mask the bitter flavor of DHEAS from dogs or other pet animals receiving it orally. As an example, Onda et al. (U.S. Pat. No. 4,385,078A) teach methods for providing enteric coatings for solid dosage forms. Tai (U.S. Pat. No. 5,013,557A) teaches taste masking compositions comprising spray dried microcapsules containing sucralfate, and Alkire (U.S. Pat. No. 5,607,697A) and Cherukuri et al (U.S. Pat. No. 5,013,716A) teach the manufacture of taste masking microparticles for oral dosage forms. Patell (U.S. Pat. No. 4,916,161A) teaches the use of taste-masking pharmaceutical agents via wet granulation. In short, many methods are available to produce a formulation that will effectively prevent dogs or other pet animals from experiencing the bitter taste of DHEAS. Very little work has been done using DHEAS as the pharmaceutical ingredient, with most studies utilizing DHEA. For example, US20140235598A1 teaches the manufacture of tablets containing DHEA, but a similar formulation could be rendered with DHEAS.

Which results are given for Dehydroepiandrosterone sulfate [DHEAS]?
dogs whose owners reported a clear increase in playfulness and/or sociability during the treatment period (60 treated dogs, DHEAS oral (liquid or capsules), 0.5-50 mg/kg, owner estimation): fifty-six of sixty and 56 of 60; playfulness and sociability (doses of 5 mg/kg and above): profound increase; playfulness and sociability (lower dose of 1 mg/kg): an effect could be observed; owners who reported the changes in their dogs to be dramatic (of twenty-six dogs treated with the highest doses (25 or 50 mg/kg)): eighteen
